Measurements reported in patent US11591309B2, “Manufacturing method for and insecticidal compositions comprising thiocyclam hydrochloride” (Arysta L[…] America, LLC, priority 2016, dated 2023).

Tests used:
Format in all cases: in vivo
[1] = system: Codling moth, Cydiapomonella—neonate larvae; experiment: Codling moth neonate larvae bioassay by diet incorporation, mortality; conditions: for LC50: Cydia pomonella, 48 h; for LC50 / LC90: mortality 2 days after treatment (D + 2), diet incorporation
From the text: Codling moth, Cydiapomonella—neonate larvae • Bioassay by diet incorporation • Mortality assessment 2 days after treatment • a.i. refers to active ingredient
(§1) LC stands for “Lethal Concentration”. LC values refer to the concentration of a chemical required to kill a certain proportion of a population of pests. The concentration of the chemical that kills 50 percent of the pests during the observation period is the LC50 value and a concentration that kills 90 percent of a population is LC90.

[2] = system: Soybean looper, Chrysodeixis includens—3rd larval stage; experiment: Soybean looper 3rd larval stage bioassay by diet surface incorporation, mortality
From the text: Soybean looper, Chrysodeixis includens—3rd larval stage • Bioassay by diet surface incorporation • Mortality assessment 3 days after treatment • a.i. refers to active ingredient
as §1

[3] = system: Aphids Myzus persicae—larvae; experiment: Aphid larvae on radish, boom sprayer application (IRAC no 019 adapted), mortality
From the text: Aphids Myzus persicae—larvae • Study based on IRAC no 019 methods, application method adapted • Plant: radish • Application on petri dish with larvae with a boom sprayer apparatus • Assessment of mortality 3 and 4 days after application • a.i. refers to active ingredient
(§2) LD stands for “Lethal Dose”. LD50 is the amount of an ingested substance that kills 50 percent of a test sample and […] is the lethal dose that kills 90 percent of the test sample.

[4] = system: White flies, Trialeurodes vaporarium—larvae; experiment: White fly larvae on bean, boom sprayer application (IRAC no 015 adapted), mortality; conditions: for LD50 / LD90: boom sprayer
From the text: White flies, Trialeurodes vaporarium—larvae • Study based on IRAC no 015 methods, stage and application method adapted • Plant: bean • Application: On the petri dish with larvae with a boom sprayer apparatus • Assessment of mortality at 7, 9 and 14 days after application • a.i. refers to active ingredient
as §2

[5] = mortality 3 days after treatment (D + 3), diet surface incorporation

**Q.** For `CN(C)C(CSC(N)=O)CSC(N)=O` [Cartap, S, S-[2-(dimethylamino)-1,3-propanediyl] dicarbamothioate, reference compound], which LC50 [1] is on record?
**A.** 10.1 µg/mL

**Q.** What about the LC90 [1] of the same compound?
**A.** 104.80 μg of a.i./ml of diet

**Q.** What about the LC90 [2, 5] of the same compound?
**A.** 908,897 μg of a.i./ml of diet

**Q.** And the LD50 ([3]; D +3, radish)?
**A.** <18.18 g a.i./ha

**Q.** What about the LD90 ([3]; D +3, radish) of the same compound?
**A.** 36.70 g a.i./ha

**Q.** And the LD50 ([3]; D +4, radish)?
**A.** <18.18 g a.i./ha

**Q.** What about the LD90 ([3]; D +4, radish) of the same compound?
**A.** 16 g a.i./ha

**Q.** And the LD50 ([4]; D +7, bean)?
**A.** 213.7 g a.i./ha

**Q.** What about the LD90 ([4]; D +7, bean) of the same compound?
**A.** 2.3 × 10^6 g a.i./ha

**Q.** And the LD50 ([4]; D +9, bean)?
**A.** 15.6 g a.i./ha

**Q.** What about the LD90 ([4]; D +9, bean) of the same compound?
**A.** 4,566.3 g a.i./ha

**Q.** What about the LD50 ([4]; D +14, bean) of the same compound?
**A.** 10.4 g a.i./ha

**Q.** And the LD90 ([4]; D +14, bean)?
**A.** 910.4 g a.i./ha

**Q.** `CN(C)C1CSSSC1.Cl` [Thiocyclam HCl, N,N-dimethyl-1,2,3-trithian-5-ylamine hydrochloride] was tested. Which LC50 [1] did it give?
**A.** 2.57 µg/mL

**Q.** What about the “LC50 and LC90 compared to thiocyclam oxalate” value ([1]; example 1, comparison in words) of the same compound?
**A.** significantly lower concentrations than thiocyclam oxalate

**Q.** And the “times less at LC50 compared to cartap” value ([1]; example 1, ratio versus cartap)?
**A.** approximately 4 times

**Q.** And the “times less at LC90 compared to cartap” value ([1]; example 1, ratio versus cartap)?
**A.** approximately 9 times

**Q.** What about the LC90 [1] of the same compound?
**A.** 10.80 μg of a.i./ml of diet

**Q.** And the LC50 ([2]; 72 h, mortality 3 days after treatment (D + 3), diet surface incorporation)?
**A.** 8990 µg/mL

**Q.** What about the “LC90 compared to cartap” value ([2]; example 2, comparison in words) of the same compound?
**A.** more than three times lower

**Q.** And the “LC90 compared to thiocyclam oxalate” value ([2]; example 2, comparison in words)?
**A.** orders of magnitude smaller

**Q.** And the “times less at LC50 than cartap” value ([2]; example 2, ratio versus cartap)?
**A.** approximately 6 times

**Q.** What about the “times less at LC50 than thiocyclam oxalate” value ([2]; example 2, ratio versus thiocyclam oxalate) of the same compound?
**A.** approximately 20 times

**Q.** What about the LC90 [2, 5] of the same compound?
**A.** 251,759 μg of a.i./ml of diet

**Q.** What about the LD50 ([3]; D +3, radish) of the same compound?
**A.** 12.04 g a.i./ha

**Q.** And the LD90 ([3]; D +3, radish)?
**A.** 30.51 g a.i./ha

**Q.** And the LD50 ([3]; D +4, radish)?
**A.** 7.66 g a.i./ha

**Q.** And the LD90 ([3]; D +4, radish)?
**A.** 27.07 g a.i./ha

**Q.** And the LD50 ([4]; D +7, bean)?
**A.** 2.22 g a.i./ha

**Q.** And the LD90 ([4]; D +7, bean)?
**A.** 1,899 g a.i./ha

**Q.** What about the LD50 ([4]; D +9, bean) of the same compound?
**A.** 2.23 g a.i./ha

**Q.** What about the LD90 ([4]; D +9, bean) of the same compound?
**A.** 4,905 g a.i./ha

**Q.** And the LD50 ([4]; D +14, bean)?
**A.** 0.82 g a.i./ha

**Q.** What about the LD90 ([4]; D +14, bean) of the same compound?
**A.** 7,910 g a.i./ha

**Q.** And the “LD90 compared to cartap” value ([4]; example 4, days 7 and 9)?
**A.** lower application concentration compared to cartap
